# Laboratory results: US10670605B2, “Cysteine reactive probes and uses thereof” (The Scripps Research Institute, priority 2015, dated 2020)
# How the values were obtained:
# Assay in all cases: Competitive isoTOP-ABPP in situ (fragment-treated cells)
# Assay type in all cases: cell-based
# [1] = biological target: cysteines in MDA-MB-231 and Ramos cells (Homo sapiens, UniProt Q9BXW7)
# Method: (§1) Fragments 4 and 11 were screened at 100 μM in situ. […] Site-specific engagement of electrophilic fragments was assessed by blockade of IA-alkyne probe labeling. […] Ratios for unique peptide entries were calculated for each experiment; overlapping peptides with the same modified cysteine (e.g. different charge states, MudPIT chromatographic steps or tryptic termini) were grouped together and the median ratio was reported as the final ratio (R). The peptide ratios reported by CIMAGE were further filtered to ensure the removal or correction of low quality ratios in each individual dataset. […] R values were calculated and individual datasets were filtered as described above (R value calculation and processing).
# [2] = biological target: T1, cysteines in MDA-MB-231 and Ramos cells (Homo sapiens, UniProt Q15084)
# T1 sequence (Q15084 20-440): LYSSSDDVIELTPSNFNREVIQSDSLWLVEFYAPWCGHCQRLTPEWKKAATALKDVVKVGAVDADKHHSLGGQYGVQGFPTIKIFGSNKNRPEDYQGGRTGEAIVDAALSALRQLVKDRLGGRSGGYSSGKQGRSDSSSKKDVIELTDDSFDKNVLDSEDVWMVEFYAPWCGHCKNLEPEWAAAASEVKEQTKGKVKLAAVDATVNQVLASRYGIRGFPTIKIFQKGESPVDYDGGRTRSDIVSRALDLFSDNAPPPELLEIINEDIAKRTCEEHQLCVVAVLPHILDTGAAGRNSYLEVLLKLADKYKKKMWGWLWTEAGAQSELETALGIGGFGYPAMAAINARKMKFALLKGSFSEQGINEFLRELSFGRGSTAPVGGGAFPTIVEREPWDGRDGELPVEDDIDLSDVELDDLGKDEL
# Method: as §1
# [3] = biological target: T2, cysteines in MDA-MB-231 and Ramos cells (Homo sapiens, UniProt Q29RF7)
# T2 sequence (Q29RF7 1-1337): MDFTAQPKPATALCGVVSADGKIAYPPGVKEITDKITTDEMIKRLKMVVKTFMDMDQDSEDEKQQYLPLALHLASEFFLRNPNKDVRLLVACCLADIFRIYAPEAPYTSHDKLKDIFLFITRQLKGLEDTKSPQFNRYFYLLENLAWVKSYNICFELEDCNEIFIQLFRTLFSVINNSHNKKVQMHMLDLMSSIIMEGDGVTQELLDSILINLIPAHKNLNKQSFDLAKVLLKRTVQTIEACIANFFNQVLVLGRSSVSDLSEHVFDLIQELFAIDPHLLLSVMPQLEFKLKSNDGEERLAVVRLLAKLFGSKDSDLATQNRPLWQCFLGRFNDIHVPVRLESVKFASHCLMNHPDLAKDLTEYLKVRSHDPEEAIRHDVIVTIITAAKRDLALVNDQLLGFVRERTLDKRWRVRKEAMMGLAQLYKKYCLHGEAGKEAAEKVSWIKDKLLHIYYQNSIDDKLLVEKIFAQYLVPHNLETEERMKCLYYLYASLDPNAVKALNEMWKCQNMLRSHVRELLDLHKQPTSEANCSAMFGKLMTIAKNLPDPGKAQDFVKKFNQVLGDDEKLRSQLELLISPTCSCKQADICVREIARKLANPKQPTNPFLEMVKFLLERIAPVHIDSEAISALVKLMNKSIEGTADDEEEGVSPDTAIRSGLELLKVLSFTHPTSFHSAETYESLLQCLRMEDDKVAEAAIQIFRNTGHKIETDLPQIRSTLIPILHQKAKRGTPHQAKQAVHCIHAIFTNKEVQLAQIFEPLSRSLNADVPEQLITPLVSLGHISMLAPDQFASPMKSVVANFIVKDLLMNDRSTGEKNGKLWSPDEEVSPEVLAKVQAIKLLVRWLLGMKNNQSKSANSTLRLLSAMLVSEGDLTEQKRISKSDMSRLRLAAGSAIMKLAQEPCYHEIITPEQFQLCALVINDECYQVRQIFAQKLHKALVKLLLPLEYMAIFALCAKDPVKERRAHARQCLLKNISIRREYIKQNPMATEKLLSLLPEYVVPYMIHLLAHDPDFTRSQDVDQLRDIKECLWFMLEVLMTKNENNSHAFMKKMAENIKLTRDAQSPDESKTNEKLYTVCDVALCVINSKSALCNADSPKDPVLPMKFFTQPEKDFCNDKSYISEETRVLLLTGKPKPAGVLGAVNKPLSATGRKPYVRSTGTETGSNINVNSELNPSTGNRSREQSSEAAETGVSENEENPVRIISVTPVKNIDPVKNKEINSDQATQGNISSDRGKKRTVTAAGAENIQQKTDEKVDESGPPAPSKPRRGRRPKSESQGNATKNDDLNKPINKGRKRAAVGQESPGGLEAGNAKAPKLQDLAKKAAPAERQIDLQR
# Method: as §1
# [4] = biological target: T3, cysteines in MDA-MB-231 and Ramos cells (Homo sapiens, UniProt Q9HCC0); conditions: for isoTOP-ABPP ratio Q9HCC0_C216: 200 μM, insitu
# T3 sequence (Q9HCC0 23-563): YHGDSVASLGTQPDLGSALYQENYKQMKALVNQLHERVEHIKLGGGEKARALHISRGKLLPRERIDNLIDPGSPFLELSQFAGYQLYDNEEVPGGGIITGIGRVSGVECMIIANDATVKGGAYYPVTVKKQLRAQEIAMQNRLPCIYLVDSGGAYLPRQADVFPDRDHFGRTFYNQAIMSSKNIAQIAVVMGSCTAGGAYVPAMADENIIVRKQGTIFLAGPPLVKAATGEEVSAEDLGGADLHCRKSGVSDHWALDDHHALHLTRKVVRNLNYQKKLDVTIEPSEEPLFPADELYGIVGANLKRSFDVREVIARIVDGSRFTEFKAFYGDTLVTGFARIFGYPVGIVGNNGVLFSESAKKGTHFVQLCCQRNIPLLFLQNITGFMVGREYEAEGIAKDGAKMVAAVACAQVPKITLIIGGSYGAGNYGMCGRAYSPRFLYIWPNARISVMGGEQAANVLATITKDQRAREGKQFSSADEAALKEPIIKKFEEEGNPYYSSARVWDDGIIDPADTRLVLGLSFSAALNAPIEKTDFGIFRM
# Method: as §1
# [5] = biological target: T4, cysteines in MDA-MB-231 and Ramos cells (Homo sapiens, UniProt P04183)
# T4 sequence (P04183 1-234): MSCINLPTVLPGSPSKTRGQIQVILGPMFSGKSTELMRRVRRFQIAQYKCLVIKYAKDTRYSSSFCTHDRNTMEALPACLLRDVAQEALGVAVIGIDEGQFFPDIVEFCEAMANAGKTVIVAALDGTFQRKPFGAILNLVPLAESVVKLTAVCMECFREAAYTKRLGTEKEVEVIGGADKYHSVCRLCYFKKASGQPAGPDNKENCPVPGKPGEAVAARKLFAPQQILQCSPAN
# Method: as §1
# cysteines in MDA-MB-231 and Ramos cells (Homo sapiens, UniProt Q9BXW7), sequence (Q9BXW7 24-423): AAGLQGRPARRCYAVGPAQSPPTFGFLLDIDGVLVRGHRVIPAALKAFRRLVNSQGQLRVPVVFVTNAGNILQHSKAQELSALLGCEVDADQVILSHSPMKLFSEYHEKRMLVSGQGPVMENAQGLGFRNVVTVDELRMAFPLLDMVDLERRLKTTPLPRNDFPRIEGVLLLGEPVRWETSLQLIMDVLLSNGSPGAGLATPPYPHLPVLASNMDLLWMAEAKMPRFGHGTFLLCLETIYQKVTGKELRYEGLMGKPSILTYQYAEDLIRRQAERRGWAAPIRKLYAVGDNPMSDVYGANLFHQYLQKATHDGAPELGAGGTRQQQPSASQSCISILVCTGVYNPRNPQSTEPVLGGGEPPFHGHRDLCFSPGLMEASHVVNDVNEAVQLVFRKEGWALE
compound,measurement,setting,value
COc1ccccc1OCCNC(=O)CCl [compound 28],isoTOP-ABPP ratio Q9BXW7_C392,"[1]; 200 μM, insitu, 231",1.0
same,isoTOP-ABPP ratio Q15084_C55,"[2]; 200 μM, insitu, 231",1.4
same,isoTOP-ABPP ratio Q29RF7_C242,"[3]; 200 μM, insitu, 231",1.0
Cc1ccc(C=C(C#N)C(=O)NCCN2CCOCC2)cc1 [compound 41],isoTOP-ABPP ratio Q9BXW7_C392,"[1]; 200 μM, insitu, 231",1.0
same,isoTOP-ABPP ratio Q9HCC0_C216,[4]; 231,1.0
same,isoTOP-ABPP ratio Q15084_C55,"[2]; 200 μM, insitu, 231",0.9
same,"isoTOP-ABPP ratio, Q15084_C190","[2]; 200 μM, insitu, 231",0.9
same,isoTOP-ABPP ratio Q29RF7_C532,"[3]; 200 μM, insitu, 231",0.8
same,isoTOP-ABPP ratio P04183_C66,"[5]; 200 μM, insitu, 231",0.4
same,isoTOP-ABPP ratio P04183_C230,"[5]; 200 μM, insitu, 231",0.6
O=C(CCl)NC(=O)NC12CC3CC(CC(C3)C1)C2 [compound 12],isoTOP-ABPP ratio Q9BXW7_C392,"[1]; 200 μM, insitu, 231",5.1
same,isoTOP-ABPP ratio Q9HCC0_C216,[4]; 231,20.0
same,isoTOP-ABPP ratio Q15084_C55,"[2]; 200 μM, insitu, 231",15.4
same,"isoTOP-ABPP ratio, Q15084_C190","[2]; 200 μM, insitu, 231",20.0
same,"isoTOP-ABPP ratio, cysteine Q29RF7_C242","[3]; 200 μM, insitu, 231",12.9
O=C(CCl)NCCc1c[nH]c2ccccc12 [compound 13],isoTOP-ABPP ratio Q9BXW7_C392,"[1]; 200 μM, insitu, 231",2.0
same,isoTOP-ABPP ratio Q9HCC0_C216,[4]; ramos,1.8
same,isoTOP-ABPP ratio Q15084_C55,"[2]; 200 μM, insitu, ramos",1.5
same,"isoTOP-ABPP ratio, cysteine Q29RF7_C532","[3]; 200 μM, insitu, ramos",2.0
same,isoTOP-ABPP ratio P04183_C230,"[5]; 200 μM, insitu, 231",0.7
same,"isoTOP-ABPP ratio, cysteine P04183_C66","[5]; 200 μM, insitu, 231",1.0
O=C(CCl)N1CCC(Cc2ccccc2)CC1 [compound 9],isoTOP-ABPP reactivity Q9BXW7_C392 CECR5,"[1]; 200 μM, insitu, 231",1.5
same,isoTOP-ABPP reactivity Q15084_C55 PDIA6,"[2]; 200 μM, insitu, 231",2.1
same,isoTOP-ABPP reactivity P04183_C66 TK1,"[5]; 200 μM, insitu, 231",7.0
same,isoTOP-ABPP reactivity P04183_C230 TK1,"[5]; 200 μM, insitu, 231",10.0
COc1ccc(C2CC(c3cccs3)=NN2C(=O)CCl)cc1 (stereo not drawn) [compound 4],isoTOP-ABPP reactivity Q9BXW7_C392 CECR5,[1]; 100 μM in situ 231,2.2
same,isoTOP-ABPP reactivity Q9HCC0_C216 MCCC2,[4]; 100 μM in situ 231,5.9
same,isoTOP-ABPP reactivity Q15084_C55 PDIA6,[2]; 100 μM in situ 231,4.9
same,isoTOP-ABPP reactivity Q15084_C190 PDIA6,[2]; 100 μM in situ 231,20.0
same,isoTOP-ABPP reactivity Q29RF7_C242 PDS5A,[3]; 100 μM in situ 231,3.0
same,isoTOP-ABPP reactivity Q29RF7_C532 PDS5A,[3]; 100 μM in situ 231,20.0
same,isoTOP-ABPP reactivity P04183_C230 TK1,[5]; 100 μM in situ 231,0.8
O=C(CCl)NC12CC3CC(CC(C3)C1)C2 [compound 21],isoTOP-ABPP ratio Q9BXW7_C392,"[1]; 200 μM, insitu, 231",1.6
same,isoTOP-ABPP ratio Q9HCC0_C216,[4]; 231,2.2
same,isoTOP-ABPP ratio Q15084_C55,"[2]; 200 μM, insitu, 231",0.9
same,"isoTOP-ABPP ratio, cysteine Q29RF7_C242","[3]; 200 μM, insitu, 231",0.9
same,isoTOP-ABPP ratio P04183_C230,"[5]; 200 μM, insitu, 231",0.7
O=C(CCl)Nc1cccc2ncccc12 [compound 51],isoTOP-ABPP ratio Q9BXW7_C392,"[1]; 200 μM, insitu, 231",1.1
same,isoTOP-ABPP ratio Q9HCC0_C216,[4]; 231,0.9
same,isoTOP-ABPP ratio Q15084_C55,"[2]; 200 μM, insitu, 231",5.0
same,isoTOP-ABPP ratio Q29RF7_C242,"[3]; 200 μM, insitu, 231",1.8
same,isoTOP-ABPP ratio P04183_C230,"[5]; 200 μM, insitu, 231",0.7
